In the supplement of paper PMC4862054:
Several values for one entry are separate records, joined by “and”; a condition that tells them apart may be missing. Identical values can stand only once.

What was measured:
Hs578T [1] = settings: 72 h
Procedure, shortened: (§1)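 To measure viability, fluorescence at 560/590 nm was read after 2.5 µl CellTiter-Blue had been added for 2 h at 37 °C. Cells from breast cancer lines had been seeded in 20 µl suspension onto 384-well plates pre-loaded with compound dissolved in 5 µl medium and kept for 72 h. EC50 comes from a fitted percent-inhibition dose-response curve censored at the highest concentration, after per-plate normalisation to vehicle and a positive kill control, Z'-factor checks, and removal of rows with zero drug sensitivity score.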

SK-BR-3 = settings: 72 h
Procedure, shortened: as §1

MDA-MB-468 [2] = settings: 72 h
Procedure, shortened: as §1

MDA-MB-231 [3] = settings: 72 h
Procedure, shortened: as §1

HCC1937 [4] = settings: 72 h
Procedure, shortened: as §1

BT-474 [5] = settings: 72 h
Procedure, shortened: as §1

Hs578T [6] = settings: 72 h; remark: listed apart in the source
Description: (§2)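 Drug sensitivity and resistance testing (DSRT) of breast cancer cell lines in 384-well plates, 5 concentrations in 10-fold dilutions over a compound-specific 10,000-fold range. After 72 h, cytotoxicity was read by CellTox Green fluorescence and viability by CellTiter-Glo luminescence (multiplexed), normalised to DMSO and benzethonium chloride controls. EC50 is the inflection point of the fitted dose-response curve (bottom asymptote free, so it can be relative for partial curves) and is censored at the highest tested concentration. Rows with DSS 0 (no meaningful response) were excluded.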

CAL-148 [7] = settings: 72 h
Description: as §2

CAL-51 [8] = settings: 72 h
Description: as §2

BT-549 = settings: 72 h
Description: as §2

MDA-MB-231 [9] = settings: 72 h; remark: listed apart in the source
Description: as §2

HCC1937 [10] = settings: 72 h; remark: listed apart in the source
Description: as §2

HDQ-P1 [11] = settings: 72 h
Description: as §2

BT-474 [12] = settings: 72 h; remark: listed apart in the source
Description: as §2

CAL-148 [13] = settings: 72 h; remark: listed apart in the source
Procedure, shortened: (§3)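 For viability and cell death testing, 384-well plates carried compound at 5 concentrations in 10-fold steps over a compound-specific 10,000-fold range, and breast cancer cell lines were seeded in 20 µl suspension. After 72 h incubation, cell death was read by CellTox Green fluorescence (485/520 nm) before viability was read by CellTiter-Glo luminescence. EC50 was fitted from the dose-response curves and censored at the top concentration. Normalisation on each plate was to 0.1 % DMSO and a positive kill control.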

HCC1599 [14] = settings: 72 h
Procedure, shortened: as §3

MDA-MB-453 [15] = settings: 72 h
Procedure, shortened: as §3

CAL-85-1 [16] = settings: 72 h
Procedure, shortened: as §3

HCC1937 [17] = settings: 72 h; remark: listed apart in the source
Procedure, shortened: as §3

HDQ-P1 [18] = settings: 72 h; remark: listed apart in the source
Procedure, shortened: as §3

CAL-148 [19] = experiment: normalised viability (% of control), CellTiter-Blue; higher = more viable cells (about 100 = DMSO control); settings: incubation time: 72 h
Description: (§4)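 DSRT, CellTiter-Blue viability, 72 h incubation. Signal is normalised to DMSO and benzethonium chloride controls. Value is the normalised response at dose 9.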

MDA-MB-453 [20] = experiment: as above; settings: incubation time: 72 h
Description: as §4

CAL-51 [21] = experiment: as above; settings: incubation time: 72 h
Description: as §4

CAL-85-1 [22] = experiment: as above; settings: incubation time: 72 h
Description: as §4

HDQ-P1 [23] = experiment: as above; settings: incubation time: 72 h
Description: as §4

CAL-120 = settings: 72 h
Description: as §2

MDA-MB-468 [24] = settings: 72 h; remark: listed apart in the source
Description: as §2

HCC1599 [25] = settings: 72 h; remark: listed apart in the source
Description: as §2

MDA-MB-436 = settings: 72 h
Description: as §2

SMILES	EC50, CellTiter-Blue viability (SK-BR-3) [nM]	EC50, CellTiter-Blue viability (MDA-MB-231 [3]) [nM]	EC50, CellTiter-Blue viability (HCC1937 [4]) [nM]	normalised viability (CAL-148 [19])	normalised viability (MDA-MB-453 [20])	normalised viability (CAL-51 [21])	normalised viability (CAL-85-1 [22])	normalised viability (HDQ-P1 [23])	other results
COc1ccc(-c2cc3c(C)nc(N)nc3n([C@H]3CC[C@H](OCCO)CC3)c2=O)cn1	40.5	144	63						EC50, CellTiter-Blue viability (Hs578T [1]): 158 nM; EC50, CellTiter-Blue viability (MDA-MB-468 [2]): 268 nM; EC50, CellTiter-Blue viability (BT-474 [5]): 193 nM; EC50, CellTox Green (Hs578T [6]): 6070 nM; EC50, CellTox Green (CAL-148 [7]): 787 nM; EC50, CellTox Green (CAL-51 [8]): 783 nM; EC50, CellTox Green (BT-549): 3870 nM; EC50, CellTox Green (MDA-MB-231 [9]): 575 nM; EC50, CellTox Green (HCC1937 [10]): 5410 nM; EC50, CellTox Green (HDQ-P1 [11]): 1990 nM; EC50, CellTox Green (BT-474 [12]): 983 nM; EC50, CellTiter-Glo (CAL-148 [13]): 294 nM; EC50, CellTiter-Glo (HCC1599 [14]): 402 nM; EC50, CellTiter-Glo (MDA-MB-453 [15]): 115 nM; EC50, CellTiter-Glo (CAL-85-1 [16]): 229 nM; EC50, CellTiter-Glo (HCC1937 [17]): 444 nM; EC50, CellTiter-Glo (HDQ-P1 [18]): 190 nM
Cn1cc(CNCC2CCN(c3ncc(C(=O)NO)cn3)CC2)c2ccccc21	5.33	47.8	33.6						EC50, CellTiter-Blue viability (Hs578T [1]): 65.1 nM; EC50, CellTiter-Blue viability (MDA-MB-468 [2]): 38.9 nM; EC50, CellTiter-Blue viability (BT-474 [5]): 17 nM
O=C(NC[C@H](O)CO)c1ccncc1Nc1ccc(I)cc1F		19.7							
COc1ccc(-c2cc3c(C)nc(N)nc3n([C@H]3CC[C@H](OCCO)CC3)c2=O)cn1 (10000 nM)				1.46%	2.5%	2.53%	5.23%	5.55%	
O=C(Nc1c[nH]nc1-c1nc2ccc(CN3CCOCC3)cc2[nH]1)NC1CC1 [AT9283]	267	503	257						EC50, CellTiter-Blue viability (Hs578T [1]): 337 nM; EC50, CellTiter-Blue viability (MDA-MB-468 [2]): 841 nM; EC50, CellTiter-Blue viability (BT-474 [5]): 1630 nM; EC50, CellTox Green (CAL-51 [8]): 0.88 nM; EC50, CellTox Green (CAL-120): 192 nM; EC50, CellTox Green (MDA-MB-468 [24]): 0.51 nM; EC50, CellTox Green (MDA-MB-231 [9]): 24.6 nM; EC50, CellTiter-Glo (HDQ-P1 [18]): 303 nM
COc1cc(CCc2cc(NC(=O)c3ccc(N4CC(C)NC(C)C4)cc3)n[nH]2)cc(OC)c1 (stereo unspecified) [AZD4547]									EC50, CellTox Green (CAL-120): > 1000 nM
COc1cc(CCc2cc(NC(=O)c3ccc(N4CC(C)NC(C)C4)cc3)n[nH]2)cc(OC)c1 (stereo unspecified) [AZD4547] (1000 nM)				11.9%	8.97%	3.02%	2.48%	123%	
CCC/C=C/C=C/C(=O)O[C@H]1/C(=C/C(=O)OC)C[C@H]2C[C@H]([C@@H](C)O)OC(=O)C[C@H](O)C[C@@H]3C[C@H](OC(C)=O)C(C)(C)[C@](O)(C[C@@H]4C/C(=C/C(=O)OC)C[C@H](/C=C/C(C)(C)[C@]1(O)O2)O4)O3 [Bryostatin 1]	155								EC50, CellTox Green (HDQ-P1 [11]): 0.9 nM
CCC/C=C/C=C/C(=O)O[C@H]1/C(=C/C(=O)OC)C[C@H]2C[C@H]([C@@H](C)O)OC(=O)C[C@H](O)C[C@@H]3C[C@H](OC(C)=O)C(C)(C)[C@](O)(C[C@@H]4C/C(=C/C(=O)OC)C[C@H](/C=C/C(C)(C)[C@]1(O)O2)O4)O3 [Bryostatin 1] (100 nM)				67.6%	102%	109%	99.2%	104%	
CO[C@@H](C(=O)N1Cc2[nH]nc(NC(=O)c3ccc(N4CCN(C)CC4)cc3)c2C1)c1ccccc1 [Danusertib] (10000 nM)				69.4%	31.3%	17.7%	32.1%	10.4%	
Cc1nc(Nc2ncc(C(=O)Nc3c(C)cccc3Cl)s2)cc(N2CCN(CCO)CC2)n1 [Dasatinib] (1000 nM)				112% and 97.6%	84.2% and 84.5%	36.7% and 40.3%	37.7% and 37.6%	11.7% and 10.7%	
O=S(=O)(c1cccc2cnccc12)N1CCCNCC1 [Fasudil]									EC50, CellTiter-Glo (MDA-MB-453 [15]): 27400 nM
CS(=O)(=O)N1CCN(Cc2cc3nc(-c4cccc5[nH]ncc45)nc(N4CCOCC4)c3s2)CC1 [GDC-0941]	158	2240	958						EC50, CellTiter-Blue viability (Hs578T [1]): 1460 nM; EC50, CellTiter-Blue viability (MDA-MB-468 [2]): 1650 nM; EC50, CellTiter-Blue viability (BT-474 [5]): 770 nM
Cc1c(CN2CCN(C(=O)[C@H](C)O)CC2)sc2c(N3CCOCC3)nc(-c3cnc(N)nc3)nc12 [GDC-0980] (10000 nM)				3.74%	3.22%	3.17%	15.2%	10.9%	
Nc1cccc2c1CN(C1CCC(=O)NC1=O)C2=O (stereo unspecified) [Lenalidomide] (10000 nM)				86.1% and 106%	94.2% and 92.1%	97.1% and 99.6%	81.6% and 86.1%	106% and 110%	
C[C@]12O[C@H](C[C@]1(O)CO)n1c3ccccc3c3c4c(c5c6ccccc6n2c5c31)CNC4=O [Lestaurtinib]	813		369						EC50, CellTox Green (Hs578T [6]): 333 nM; EC50, CellTox Green (HCC1599 [25]): 439 nM; EC50, CellTox Green (BT-549): 1000 nM; EC50, CellTox Green (MDA-MB-231 [9]): > 1000 nM; EC50, CellTox Green (MDA-MB-436): 11.9 nM; EC50, CellTox Green (BT-474 [12]): 819 nM; EC50, CellTiter-Glo (HCC1599 [14]): 238 nM; EC50, CellTiter-Glo (MDA-MB-453 [15]): 3.03 nM; EC50, CellTiter-Glo (CAL-85-1 [16]): 277 nM; EC50, CellTiter-Glo (HCC1937 [17]): > 1000 nM; EC50, CellTiter-Glo (HDQ-P1 [18]): 233 nM
